Data reported in patent US20110124634A1, “BIOACTIVE COMPOUNDS FOR TREATMENT OF CANCER AND NEURODEGENERATIVE DISEASES” (PONIARD PHARMACEUTICALS, INC., priority 2008, published 2011).
Read-outs that look alike come from different tables or passages of the source.

Assays:
Format in all cases: cell-based
[1] = test system: BT474; assay: MTS assay (cytotoxicity), growth inhibition of BT474; conditions: Homo sapiens, BT-474, 120 h
Description: (§1) Cells were seeded in 96-well plates at 2000 cells/well in a final culture volume of 100 ul for 24 hours before the addition of 25 ul of increasing concentrations of inhibitors that was incubated for 5 days. Viable cell number was determined using the CellTiter 96 AQueous One Solution Cell Proliferation Assay (Promega). Plates were read at 490 nm absorbance 2-4 hours after addition of the MTS reagent using a multiwell plate spectrophotometer. Background was determined by measuring the Abs 490 nm of cell culture medium and MTS in the absence of cells. The background value was subtracted from all values. Absorbance 490 nm values for each inhibitor were plotted against the log 10 inhibitor concentration, and IC50 values were calculated using a nonlinear least-square curve fitting program in Prism 5.

[2] = test system: HSP90 client protein Her2 in SKBR-3 cells; assay: Her-2 degradation assay (Her-2 ELISA) in SKBr-3 cells; conditions: Homo sapiens
Description: Most of the compounds synthesized were evaluated for their ability to induce degradation of the HSP90 client protein Her2 in SKBR-3 cells. Selected compounds were evaluated in a fluorescence polarization (FP) assay for their affinity to HSP90.
SKBr-3 cells grown in McCoy's 5a Medium supplemented with 10% fetal bovine serum (FBS) were plated into 12-well plates at 50% confluency. Increasing concentrations of inhibitors were added 24 hours later (cells are 65-70% confluent) and incubated overnight for 18 hours. The wells were washed with 2 ml of phosphate buffered saline (PBS), and 50 ul of trypsin was added to each well. After trypsinization was complete, 150 ul of FBS was added to each well. Then 200 ul of cells were transferred to 96-well plates and plates were centrifuged at 1200 rpm for 2 minutes using a tabletop centrifuge. The cells were washed once with 250 ul PBS before being lysed with 100 ul of 50 mM Tris (pH 7.4), 0.1% NP-40 lysis buffer. Protein concentrations of clarified lysates were determined using the BCA Assay (Calbiochem) according to the manufacturer's instructions. 2 ug of each lysate was analyzed in the human sp 185 Her-2 ELISA (Bender Medsystems) according to the manufacturer's instructions. ELISA plates were read at 450 nm using a multiwell plate spectrophotometer. Background was determined by measuring the Abs 450 nm of wells with no lysate added. The background value was subtracted from all values. Absorbance 450 nm values for each inhibitor were plotted against the log 10 inhibitor concentration, and IC50 values were calculated using a nonlinear least-square curve fitting program in Prism 5.

[3] = test system: HT29; assay: MTS assay (cytotoxicity), growth inhibition of HT29; conditions: Homo sapiens, HT-29, 120 h
Description: as §1

[4] = test system: SKBR-3; assay: MTS assay (cytotoxicity), growth inhibition of SKBR-3; conditions: Homo sapiens, SK-BR-3, 120 h
Description: as §1

[5] = test system: MCF-7; assay: MTS assay (cytotoxicity), growth inhibition of MCF-7; conditions: Homo sapiens, MCF7, 120 h
Description: as §1

[6] = Table 4, 5 days, means of three independent experiments, read-out: BT474 IC50 (growth inhibition)
[7] = SK-BR-3, Table 1, series I, 18 hours, means of three independent experiments
[8] = Table 4, 5 days, means of three independent experiments, read-out: HT29 IC50 (growth inhibition)
[9] = Table 4, 5 days, means of three independent experiments, read-out: SKBR-3 IC50 (growth inhibition)
[10] = Table 4, 5 days, means of three independent experiments, read-out: MCF-7 IC50 (growth inhibition)
[11] = Table 5, series III, 5 days, read-out: Growth Inhibition (IC50) BT474
[12] = SK-BR-3, Table 5, series III, 18 hours
[13] = Table 5, series III, 5 days, read-out: Growth Inhibition (IC50) HT29
[14] = Table 5, series III, 5 days, read-out: Growth Inhibition (IC50) SKBR-3
[15] = Table 5, series III, 5 days, read-out: Growth Inhibition (IC50) MCF-7

| IC50 ([2]; SK-BR-3, Table 3, 18 hours, means of three independent experiments) [nM] | IC50 [2, 12] [nM] | SMILES | IC50 [1, 6] [nM] | IC50 [2, 7] [nM] | IC50 [3, 8] [nM] | IC50 [4, 9] [nM] | IC50 [5, 10] [nM] | IC50 [1, 11] [nM] | IC50 [3, 13] [nM] | IC50 [4, 14] [nM] | IC50 [5, 15] [nM] |
| --- | --- | --- | --- | --- | --- | --- | --- | --- | --- | --- | --- |
|  |  | COc1c(C)cnc(CN2CC(=O)N(CCN3CCCC3)c3c(Cl)nc(N)nc32)c1C [Example I-7] | 520 | 510 | 1080 | 300 | 1320 |  |  |  |  |
|  |  | COc1c(C)cnc(CN2CC(=O)N(CCCN3CCOCC3)c3c(Cl)nc(N)nc32)c1C [Example I-10] | 1810 | 1550 | 2950 | 1110 | 2590 |  |  |  |  |
| > 5000 |  | COc1cc(CN2CC(=O)N(CC(C)C)c3c(Cl)nc(N)nc32)c(Cl)c(OC)c1OC [Example I-36] |  |  |  |  |  |  |  |  |  |
|  | 1670 | COc1c(C)cnc(CN2C(=O)/C(=C\c3[nH]c(C)cc3C)c3c(Cl)nc(N)nc32)c1C [III-2, 2-Amino-4-chloro-5-[1-(3,5-dimethyl-1H-pyrrol-2-yl)-meth-(Z)-ylidene]-7-(4-methoxy-3,5-dimethyl-pyridin-2-ylmethyl)-5,7-dihydro-pyrrolo[2,3-d]pyrimidin-6-one] |  |  |  |  |  | 1020 | 1210 | 960 | 3650 |
|  | 70 | CCN(CC)CCCNC(=O)c1c[nH]c(/C=C2\C(=O)N(Cc3ncc(C)c(OC)c3C)c3nc(N)nc(Cl)c32)c1 [III-29, (Z)-5-((2-Amino-4-chloro-7-((4-methoxy-3,5-dimethylpyridin-2-yl)methyl)-6-oxo-6,7-dihydro-5H-pyrrolo[2,3-d]pyrimidin-5-ylidene)methyl)-N-(3-(diethylamino)propyl)-1H-pyrrole-3-carboxamide] |  |  |  |  |  | 30 |  | 20 | 410 |
|  | 8 | COc1c(C)cnc(CN2C(=O)/C(=C\c3cc(C(=O)NCCN4CCC(=O)CC4)c[nH]3)c3c(Cl)nc(N)nc32)c1C [III-36, (Z)-5-((2-Amino-4-chloro-7-((4-methoxy-3,5-dimethylpyridin-2-yl)methyl)-6-oxo-6,7-dihydro-5H-pyrrolo[2,3-d]pyrimidin-5-ylidene)methyl)-N-(2-(4-oxopiperidin-1-yl)ethyl)-1H-pyrrole-3-carboxamide] |  |  |  |  |  | 3 |  | 0.9 | 410 |
|  | 10 | CCN(CC)CCNC(=O)c1c[nH]c(/C=C2\C(=O)N(Cc3nc(C)c(C)s3)c3nc(N)nc(Cl)c32)c1 [III-69, (Z)-5-((2-Amino-4-chloro-7-((4,5-dimethylthiazol-2-yl)methyl)-6-oxo-6,7-dihydro-5H-pyrrolo[2,3-d]pyrimidin-5-ylidene)methyl)-N-(2-(diethylamino)ethyl)-1H-pyrrole-3-carboxamide] |  |  |  |  |  | 60 |  | 10 | 770 |
|  | 40 | Cc1nc(CN2C(=O)/C(=C\c3cc(C(=O)NCCN4CCOCC4)c[nH]3)c3c(Cl)nc(N)nc32)sc1C [III-70] |  |  |  |  |  | 80 |  | 20 | 320 |
|  | 20 | COc1c(C)cnc(CN2C(=O)/C(=C\c3cc(C(=O)CN4CCOCC4)c[nH]3)c3c(Cl)nc(N)nc32)c1C [III-93, (Z)-2-Amino-4-chloro-7-((4-methoxy-3,5-dimethylpyridin-2-yl)methyl)-5-((4-(2-morpholinoacetyl)-1H-pyrrol-2-yl)methylene)-5H-pyrrolo[2,3-d]pyrimidin-6(7H)-one] |  |  |  |  |  | 60 |  | 10 | 130 |
|  | 10 | CCN(CC)CC(=O)c1c[nH]c(/C=C2\C(=O)N(Cc3ncc(C)c(OC)c3C)c3nc(N)nc(Cl)c32)c1 [III-95, (Z)-2-Amino-4-chloro-5-((4-(2-(diethylamino)acetyl)-1H-pyrrol-2-yl)methylene)-7-((4-methoxy-3,5-dimethylpyridin-2-yl)methyl)-5H-pyrrolo[2,3-d]pyrimidin-6(7H)-one] |  |  |  |  |  | 20 |  | 2 | 710 |
|  | 70 | COc1c(C)cnc(CN2C(=O)/C(=C\c3[nH]c(C)c(C(=O)NCCN4CCOCC4)c3C)c3c(Cl)nc(N)nc32)c1C [III-103, (Z)-5-((2-Amino-4-chloro-7-((4-methoxy-3,5-dimethylpyridin-2-yl)methyl)-6-oxo-6,7-dihydro-5H-pyrrolo[2,3-d]pyrimidin-5-ylidene)methyl)-2,4-dimethyl-N-(2-morpholinoethyl)-1H-pyrrole-3-carboxamide] |  |  |  |  |  | 110 |  | 40 | 810 |
|  | 10 | COc1c(C)cnc(CN2C(=O)/C(=C\c3[nH]c(C)c(C(=O)NCCN4CCCC4)c3C)c3c(Cl)nc(N)nc32)c1C [III-104, (Z)-5-((2-Amino-4-chloro-7-((4-methoxy-3,5-dimethylpyridin-2-yl)methyl)-6-oxo-6,7-dihydro-5H-pyrrolo[2,3-d]pyrimidin-5-ylidene)methyl)-2,4-dimethyl-N-(2-(pyrrolidin-1-yl)ethyl)-1H-pyrrole-3-carboxamide] |  |  |  |  |  | 190 |  | 10 | 5880 |
|  | 70 | COc1c(C)cnc(CN2C(=O)/C(=C\c3[nH]c(C)c(C(=O)NCCN4CCCCC4)c3C)c3c(Cl)nc(N)nc32)c1C [III-105, (Z)-5-((2-Amino-4-chloro-7-((4-methoxy-3,5-dimethylpyridin-2-yl)methyl)-6-oxo-6,7-dihydro-5H-pyrrolo[2,3-d]pyrimidin-5-ylidene)methyl)-2,4-dimethyl-N-(2-(piperidin-1-yl)ethyl)-1H-pyrrole-3-carboxamide] |  |  |  |  |  | 1280 |  | 100 | > 1000 |
|  | 40 | COc1c(C)cnc(CN2C(=O)/C(=C\c3[nH]c(C)c(C(=O)NCCN4CCS(=O)(=O)CC4)c3C)c3c(Cl)nc(N)nc32)c1C [III-106, 5-[2-Amino-4-chloro-7-(4-methoxy-3,5-dimethyl-pyridin-2-ylmethyl)-6-oxo-6,7-dihydro-pyrrolo[2,3-d]pyrimidin-(5Z)-ylidenemethyl]-2,4-dimethyl-1H-pyrrole-3-carboxylic acid [2-(1,1-dioxo-thiomorpholin-4-yl)-ethyl]-amide] |  |  |  |  |  | 90 |  | 40 | 240 |
|  | 20 | COc1c(C)cnc(CN2C(=O)/C(=C\c3[nH]c(C)c(C(=O)NCCN4CCC(O)CC4)c3C)c3c(Cl)nc(N)nc32)c1C [III-107, (Z)-5-((2-Amino-4-chloro-7-((4-methoxy-3,5-dimethylpyridin-2-yl)methyl)-6-oxo-6,7-dihydro-5H-pyrrolo[2,3-d]pyrimidin-5-ylidene)methyl)-N-(2-(4-hydroxypiperidin-1-yl)ethyl)-2,4-dimethyl-1H-pyrrole-3-carboxamide] |  |  |  |  |  | 20 |  | 5 | 230 |

| SMILES | IC50 ([2]; SK-BR-3, Table 3, 18 hours, means of three independent experiments) [nM] | IC50 [2, 12] [nM] | IC50 [1, 6] [nM] | IC50 [2, 7] [nM] | IC50 [3, 8] [nM] | IC50 [4, 9] [nM] | IC50 [5, 10] [nM] | IC50 [1, 11] [nM] | IC50 [3, 13] [nM] | IC50 [4, 14] [nM] | IC50 [5, 15] [nM] |
| --- | --- | --- | --- | --- | --- | --- | --- | --- | --- | --- | --- |
| COc1c(C)cnc(CN2C(=O)/C(=C\c3ccc[nH]3)c3c(Cl)nc(N)nc32)c1C [III-1, 2-Amino-4-chloro-7-(4-methoxy-3,5-dimethyl-pyridin-2-ylmethyl)-5-[1-(1H-pyrrol-2-yl)-meth-(Z)-ylidene]-5,7-dihydro-pyrrolo[2,3-d]pyrimidin-6-one] |  | 90 |  |  |  |  |  | 30 | 30 | 90 | 90 |
| COc1c(C)cnc(CN2C(=O)/C(=C\c3nc(NC(=O)C(C)C)c[nH]3)c3c(Cl)nc(N)nc32)c1C [III-71, (Z)-N-(2-((2-Amino-4-chloro-7-((4-methoxy-3,5-dimethylpyridin-2-yl)methyl)-6-oxo-6,7-dihydro-5H-pyrrolo[2,3-d]pyrimidin-5-ylidene)methyl)-1H-imidazol-4-yl)isobutyramide] |  | 50 |  |  |  |  |  | 80 |  | 30 | 370 |
| CCN(CC)CCCc1ccc(/C=C2\C(=O)N(Cc3ncc(C)c(OC)c3C)c3nc(N)nc(Cl)c32)[nH]1 [III-86] |  | 310 |  |  |  |  |  | 760 |  | 1130 | 1370 |
